The target in one test is Carbonic anhydrase 9 (Homo sapiens, UniProt Q16790).
The subject of another test is KM12. The test is described as follows: Cytotoxicity against human KM12 cells at 10 uM. Type of test: functional. To be noted: read-out: GI.
For a further test, the system named is SR. The experiment in a line: Cytotoxicity against human SR cells at 10 uM. The class given is functional. To be noted: read-out: GI.
The test system of another test is OVCAR-3. The experiment in a line: Cytotoxicity against human OVCAR3 cells at 10 uM. The class given is functional. The conditions noted are these: read-out: GI.
In another test the test system is SF-268. The test is described as follows: Cytotoxicity against human SF268 cells at 10 uM. The class given is functional. The conditions noted are these: read-out: GI.
The next test deals with MCF7. The test is described as follows: Cytotoxicity against human MCF7 cells at 10 uM. The conditions noted are these: read-out: GI. Type of test: functional.
In another test the test system is HL-60(TB). The test is described as follows: Cytotoxicity against human HL-60(TB) cells at 10 uM. The class given is functional. To be noted: read-out: GI.
A short description of test [1]: Cytotoxicity against human Hs 578T cells at 10 uM. To be noted: read-out: GI. The class given is functional.
In the next test the test system is NCI/ADR-RES. The test is described as follows: Cytotoxicity against human NCI-ADR-RES cells at 10 uM. Type of test: functional.
Another test deals with SNB-75. The test is described as follows: Cytotoxicity against human SNB75 cells at 10 uM. Type of test: functional. The conditions noted are these: read-out: GI.
In the next test the test system is SK-MEL-2. The test is described as follows: Cytotoxicity against human SK-MEL-2 cells at 10 uM. The class given is functional. To be noted: read-out: GI.
Another test deals with HOP-92. The test is described as follows: Cytotoxicity against human HOP92 cells at 10 uM. Type of test: functional. To be noted: read-out: GI.
In a further test the test system is RPMI-8226. The test is described as follows: Cytotoxicity against human RPMI8226 cells at 10 uM. To be noted: read-out: GI. The class given is functional.
Another test has as its system HT-29. The experiment in a line: Cytotoxicity against human HT-29 cells at 10 uM. Type of test: functional.
The next test concerns SW-620. The test is described as follows: Cytotoxicity against human SW620 cells at 10 uM. Type of test: functional. To be noted: read-out: GI.
For another test, the system named is UACC-62. The experiment in a line: Cytotoxicity against human UACC62 cells at 10 uM. Type of test: functional. The conditions noted are these: read-out: GI.
For the next test, the system named is A549. The experiment in a line: Cytotoxicity against human A549 cells at 10 uM. The class given is functional. To be noted: read-out: GI.
The next test concerns LOX IMVI. The test is described as follows: Cytotoxicity against human LOXIMVI cells at 10 uM. Type of test: functional. To be noted: read-out: GI.
Another test deals with DU-145. The experiment in a line: Cytotoxicity against human DU145 cells at 10 uM. The class given is functional.
The next test deals with MOLT-4. The test is described as follows: Cytotoxicity against human MOLT4 cells at 10 uM. The conditions noted are these: read-out: GI. Type of test: functional.
The subject of another test is PC-3. The experiment in a line: Cytotoxicity against human PC3 cells at 10 uM. Type of test: functional. The conditions noted are these: read-out: GI.
Another test relates to T47D. The experiment in a line: Cytotoxicity against human T47D cells at 10 uM. The conditions noted are these: read-out: GI. Type of test: functional.
The test system of another test is K562. The test is described as follows: Cytotoxicity against human K562 cells at 10 uM. The class given is functional. To be noted: read-out: GI.
Another test deals with A498. The experiment in a line: Cytotoxicity against human A498 cells at 10 uM. The class given is functional. To be noted: read-out: GI.
In another test the test system is NCI-H460. The experiment in a line: Cytotoxicity against human NCI-H460 cells at 10 uM. The class given is functional. To be noted: read-out: GI.
A further test relates to MDA-MB-468. The test is described as follows: Cytotoxicity against human MDA-MB-468 cells at 10 uM. Type of test: functional. To be noted: read-out: GI.

Calls of active or inactive are those of the source. The calls are words filed in the database; no cut-off is given here.

On Carbonic anhydrase 9, `Cc1cc(S(=O)(=O)NC(=N)Nc2nnc(S(N)(=O)=O)s2)c(SCc2ccc(C(F)(F)F)cc2)cc1Cl` had a Ki of 10.3 nM.

With `Cc1cc(S(=O)(=O)NC(=N)NCc2ccc(S(N)(=O)=O)cc2)c(SCc2ccccc2)cc1Cl`, the inhibition of growth at 10 µM stood at 16% in the test with KM12; 29% in the test with SR; 24% in the test on OVCAR-3; 16% in the test on SF-268; 37% with MCF7; 28% in the test with HL-60(TB). The inhibition of growth at 10 µM in [1] is 44%; in the test with SNB-75, 43%; in the test on SK-MEL-2, 32%; in the test with HOP-92 it was 63%; in the test with RPMI-8226 it was 41%; with SW-620 it was 4%. In addition, the inhibition of growth at 10 µM was 49% with UACC-62; 21% with A549; 12% with LOX IMVI; 31% in the test with MOLT-4; 36% in the test on PC-3; 35% in the test with T47D. In addition, the inhibition of growth at 10 µM in the test with K562 amounted to 34%; in the test on A498, 25%; in the test on NCI-H460, 10%; in the test on MDA-MB-468, 45%. Also, the “growth inhibition (GI)” value in the test on NCI/ADR-RES, with HT-29 and in the test with DU-145 was “inactive” throughout.

In the case of `Cc1cc(S(=O)(=O)NC(=N)Nc2ccccc2S(N)(=O)=O)c(SCc2cccc3ccccc23)cc1Cl`, at Carbonic anhydrase 9, the affinity, expressed as Ki, was 138 nM.

`Cc1cc(S(=O)(=O)NC(=N)NNc2ccc(S(N)(=O)=O)cc2)c(SCc2cccc(C(F)(F)F)c2)cc1Cl` yielded a Ki on Carbonic anhydrase 9 of 21 nM.

The values above are taken from ChEMBL document CHEMBL3102853, “Carbonic anhydrase inhibitors. Synthesis, and molecular structure of novel series N-substituted N'-(2-arylmethylthio-4-chloro-5-methylbenzenesulfonyl)guanidines and their inhibition of human cytosolic isozymes I and II and the transmembrane tumor-associated isozymes IX and XII” (Eur J Med Chem, 2014).
